Each compound was assayed against NAD(P)H oxidases (NOX) in HL-60 cells (Homo sapiens, UniProt P04839) (assay: Assay of NOX activity: cytochrome C reduction in PMA-stimulated differentiated HL-60 cells). Conditions: HL-60; DPI final conc. 10 μM, control inhibitor; 'usually'; read-out: Residual activity of DPI-treated cells (NOX activity as % of the activity in PMA-stimulated control cells).
Type: cell-based
Experimental: (§1) Measurement of cytochrome C-reduction was used to assess the NOX-activity in HL-60 cells.
(§2) The human acute myeloid leukemia cell line HL-60 (ECACC 98070106) was cultured in RPMI 1640 (Biochrom, Berlin, Germany) supplemented with 5% heat-inactivated calf serum, 2 mM glutamine (GLUTAMAX, Invitrogen, Karlsruhe, Germany), 100 U/ml penicillin (Sigma, Taufkirchen, Germany), and 100 μg/ml streptomycin (Sigma, Taufkirchen, Germany) at 37° C. under a humidified atmosphere of 5% CO2. Cells were maintained at 0.1−2.0×10^6 cells/ml. To induce myeloid differentiation, the cells were seeded to a density of 0.5×10^6 cells/ml and cultivated for 6 days in medium containing 1.25% (v/v) dimethylsulfoxide (DMSO). […]
(§3) E550 and E540 were measured once before stimulation of the cells on a micro-plate reader (Multiskan Spektrum, Thermo Electron Corporation, Dreieich, Germany). E540 was the isosbestic point and used to normalize absorbance at 550 nm (E550/E540). […]
(§4) The plate was shaken for 10 sec in the micro-plate reader and then incubated at 37° C. under a humidified atmosphere of 5% CO2. E550 and E540 were measured after 60 and 120 min.
(§5) For calculation, the absorbance at 550 nm was normalized to absorbance at the isosbestic point at 540 nm for each individual well. […] NOX-activities were expressed as % of the activity in PMA-stimulated control cells. […]

NAD(P)H oxidases (NOX) in HL-60 cells (Homo sapiens, UniProt P04839), sequence (P04839 whole entry): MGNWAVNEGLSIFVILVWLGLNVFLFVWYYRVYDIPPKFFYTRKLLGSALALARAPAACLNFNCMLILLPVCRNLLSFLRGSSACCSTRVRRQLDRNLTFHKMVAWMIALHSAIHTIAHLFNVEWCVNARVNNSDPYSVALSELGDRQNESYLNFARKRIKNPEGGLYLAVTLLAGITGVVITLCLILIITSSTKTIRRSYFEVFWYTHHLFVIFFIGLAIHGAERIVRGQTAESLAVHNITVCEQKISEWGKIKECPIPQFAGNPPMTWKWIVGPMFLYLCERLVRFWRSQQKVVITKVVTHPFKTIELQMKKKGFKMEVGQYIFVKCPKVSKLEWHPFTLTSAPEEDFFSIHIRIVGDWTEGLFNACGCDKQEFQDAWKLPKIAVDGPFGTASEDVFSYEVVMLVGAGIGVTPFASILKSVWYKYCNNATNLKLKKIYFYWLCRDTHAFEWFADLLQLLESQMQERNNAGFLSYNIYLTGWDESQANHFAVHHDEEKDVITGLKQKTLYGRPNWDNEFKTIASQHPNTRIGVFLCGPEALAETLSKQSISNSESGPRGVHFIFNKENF

| Compound | activity at 10 µM |
| --- | --- |
| c1ccc2c(c1)[I+]c1ccccc1-2 [DPI, Diphenyleneiodonium chloride] | < 10% |

Each compound was assayed on NAD(P)H oxidases (NOX) in HL-60 cells in the same assay as above. Conditions: 100 U/ml superoxide dismutase, used as a control in some experiments.
Type: cell-based, human
Experimental: as §1, §2, §3, §4, §5

| Compound | Inhibition of the signal by SOD |
| --- | --- |
| SOD: superoxide dismutase from bovine erythrocytes, EC1.15.1.1, used as a control | > 95% |

The compounds below were run on platelets (assay: Inhibition of thrombin-induced (TRAP-6) platelet activation: P-Selectin expression on washed platelets, flow cytometry). Conditions: Homo sapiens, 5 μmol/l compound, 1 min pre-incubation, washed platelets stimulated 2 min with TRAP-6, read-out: % Inhibition of activation (percent reduction of TRAP-6 induced P-Selectin expression).
Type: cell-based
Experimental: Expression of P-Selectin on the surface of platelets was used as a marker of platelet activation.
All experiments were performed with washed platelets (PRP). Fresh venous blood from healthy volunteers (40 ml) was collected into 10 ml of 5-fold CCD-solution (7 mM citric acid, 100 mM trisodium citrate, 140 mM glucose, 15 mM EGTA as anti-coagulant, pH 6.5). Platelet rich plasma was prepared by centrifugation at 300 g for 20 min. The supernatant was collected and incubated for 10 min at room temperature. Platelets were pelleted from the supernatant by a second centrifugation step at 500 g for 20 min. The pellet was resuspended in 5 ml HEPES buffer (145 in M NaCl, 5 mM KCl, 1 in M MgCl2, 10 mM glucose, 10 mM HEPES, pH 7.4). Platelet concentration was adjusted to 3×10^8 platelets/ml with HEPES buffer.
Washed platelets (0.2 ml) were silenced for 1 h at room temperature in siliconised reaction tubes. After pre-incubation with compounds of example 1-11 for 1 min the washed platelets were stimulated for 2 min with thrombin receptor activating peptide (TRAP-6, BACHEM Biochemicals, Heidelberg, Germany).
As a positive control, 0.2 ml of washed platelets were pre-incubated with 10 μM of the NO-releasing compound sodium nitroprussid (SNP, Sigma, Deisenhofen).
After incubation, 20 μl of the sample was pipetted to 10 μl of FITC-labelled anti-CD62P antibody (DAKO, Glostrup, Denmark) and incubated for 15 min in the dark. After incubation the samples were diluted with 1.5 ml of phosphate buffered saline and immediately measured on a cytometer.
For background substraction, one sample was incubated with 10 μl of FITC-labelled un-specific mouse IgG1 (DAKO, Glostrup, Denmark).
For cytometry the Becton-Dickinson FACS-Calibur instrument (settings: FSC: E00; SSC: 337 V; FL-1:600 V) was used. For each measurement 20000 cells were analysed. Results were obtained as mean fluorescence intensity (MFI) calculated using the CellQuest program (Ver. 1.0; Becton-Dickinson).
Inhibition of platelet activation is given as percent reduction of TRAP-6 induced P-Selectin expression in the presence of 5 μmol/l of examples 1-11: […]

| Compound | inhibition at 5 µM |
| --- | --- |
| c1ccc(Cn2nnc3c(Sc4ncco4)ncnc32)cc1 [Example 3, 3-benzyl-7-(2-oxazolyl)thio-1,2,3-triazolo[4,5-d]pyrimidine] | 55% |
| Clc1ccccc1Cn1nnc2c(Sc3nc4ccccc4o3)ncnc21 [Example 11, 7-(2-benzoxazolyl)thio-3-o-chlorobenzyl-1,2,3-triazolo[4,5-d]pyrimidine] | 80% |
| COc1ccc(Cn2nnc3c(Sc4nc5ccccc5o4)ncnc32)cc1 [Example 10, 7-(2-benzoxazolyl)thio-3-p-methoxybenzyl-1,2,3-triazolo[4,5-d]pyrimidine] | 60% |
| c1ccc(-n2nnc3c(Sc4nc5ccccc5o4)ncnc32)cc1 [Example 9, 7-(2-benzoxazolyl)thio-3-phenyl-1,2,3-triazolo[4,5-d]pyrimidine] | 44% |
| Cn1nnc2c(Sc3nc4ccccc4o3)ncnc21 [Example 8, 7-(2-benzoxazolyl)thio-3-methyl-1,2,3-triazolo[4,5-d]pyrimidine] | 38% |
| Cc1nc(Sc2nc3ccccc3o2)c2nnn(Cc3ccccc3)c2n1 [Example 6, 3-benzyl-7-(2-benzoxazolyl)thio-5-methyl-1,2,3-triazolo[4,5-d]pyrimidine] | 39% |
| c1ccc(Cn2nnc3c(Sc4nc5ccccc5o4)ncnc32)cc1 [Example 1, 3-benzyl-7-(2-benzoxazolyl)thio-1,2,3-triazolo[4,5-d]pyrimidine] | 49% |
| c1ccc(Cn2nnc3c(Sc4ncc[nH]4)ncnc32)cc1 [Example 5, 3-benzyl-7-(2-imidazolyl)thio-1,2,3-triazolo[4,5-d]pyrimidine] | 21% |
| c1ccc(Cn2nnc3c(Sc4ccccn4)ncnc32)cc1 [Example 2, 3-benzyl-7-(2-pyridyl)thio-1,2,3-triazolo-[4,5-d]pyrimidine] | 34% |
| c1ccc(Cn2nnc3c(Sc4nccs4)ncnc32)cc1 [Example 4, 3-benzyl-7-(2-thiazolyl)thio-1,2,3-triazolo[4,5-d]pyrimidine] | 45% |

From patent publication US8236809B2, “Substituted 1,2,3-triazolopyrimidines for the inhibition of NAD(P)H oxidases and platelet activation” (Vasopharm GmbH, priority 2004, dated 2012)
